Measurements taken from article PMC2806265, “Divergence of allosteric effects of rapacuronium on binding and function of muscarinic receptors” (BMC Pharmacology, 2009).

Key:
M5 muscarinic receptor [1] = target: T1, M5 muscarinic receptor (Homo sapiens, UniProt P08912); assay: [3H]NMS saturation binding
T1 sequence (P08912 1-532): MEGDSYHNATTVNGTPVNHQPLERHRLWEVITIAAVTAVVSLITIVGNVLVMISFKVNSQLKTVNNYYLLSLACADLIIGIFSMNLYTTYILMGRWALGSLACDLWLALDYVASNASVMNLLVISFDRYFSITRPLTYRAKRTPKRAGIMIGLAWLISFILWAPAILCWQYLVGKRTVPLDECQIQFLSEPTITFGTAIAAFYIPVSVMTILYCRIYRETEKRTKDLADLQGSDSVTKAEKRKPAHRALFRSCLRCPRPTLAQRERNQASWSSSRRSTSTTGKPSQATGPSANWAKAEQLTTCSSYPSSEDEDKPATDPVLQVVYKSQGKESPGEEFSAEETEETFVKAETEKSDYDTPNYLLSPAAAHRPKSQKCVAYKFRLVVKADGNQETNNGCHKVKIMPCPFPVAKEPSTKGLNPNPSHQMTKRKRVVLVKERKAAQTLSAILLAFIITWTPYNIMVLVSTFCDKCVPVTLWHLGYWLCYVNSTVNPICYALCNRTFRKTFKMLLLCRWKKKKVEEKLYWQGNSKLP

M2 muscarinic receptor [2] = target: T2, M2 muscarinic receptor (Homo sapiens, UniProt P08172); assay: [35S]GTPγS binding to membranes; assay type: biochemical; parameters: host or cells: CHO cells, stably transfected; membrane preparation; conditions: for EMAX of ACh on [^35S]GTPγS binding: fold of basal
T2 sequence (P08172 1-466): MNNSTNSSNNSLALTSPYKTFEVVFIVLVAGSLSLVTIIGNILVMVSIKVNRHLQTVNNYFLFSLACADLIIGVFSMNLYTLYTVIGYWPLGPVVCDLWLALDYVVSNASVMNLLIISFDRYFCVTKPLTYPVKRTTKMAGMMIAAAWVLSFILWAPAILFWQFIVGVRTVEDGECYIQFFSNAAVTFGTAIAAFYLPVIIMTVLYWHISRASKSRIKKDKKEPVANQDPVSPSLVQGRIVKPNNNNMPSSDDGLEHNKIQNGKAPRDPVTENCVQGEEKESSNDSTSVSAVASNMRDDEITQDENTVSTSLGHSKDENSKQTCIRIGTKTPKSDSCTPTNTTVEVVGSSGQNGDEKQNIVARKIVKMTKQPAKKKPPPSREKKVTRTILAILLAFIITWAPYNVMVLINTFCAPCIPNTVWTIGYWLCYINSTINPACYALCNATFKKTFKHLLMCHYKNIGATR
Experimental: For determination of [^35S]GTPγS binding to G-proteins in membranes a final concentration of 200 pM (M1, M3 and M5 receptors) or 500 pM (M2 and M4 receptors) of [^35S]GTPγS was used. Incubation medium was supplemented with 5 μM (M1, M3 and M5 receptors) or 50 μM (M2 and M4 receptors) GDP. […] Incubation with [^35S]GTPγS was carried out for 20 min and free ligand was removed by filtration as described above. Filtration and washing with ice-cold water lasted for 9 s (wash-aspirate button time).

M5 muscarinic receptor [3] = target: T1, M5 muscarinic receptor; assay: [3H]ACh saturation binding; parameters: host or cells: CHO cells, stably transfected; membranes
Text: (§1) BMAX, maximum binding capacity; KD, equilibrium dissociation constant.

M4 muscarinic receptor = target: T3, M4 muscarinic receptor (Homo sapiens, UniProt P08173); assay: [3H]ACh saturation binding; parameters: host or cells: CHO cells, stably transfected; membranes
T3 sequence (P08173 1-479): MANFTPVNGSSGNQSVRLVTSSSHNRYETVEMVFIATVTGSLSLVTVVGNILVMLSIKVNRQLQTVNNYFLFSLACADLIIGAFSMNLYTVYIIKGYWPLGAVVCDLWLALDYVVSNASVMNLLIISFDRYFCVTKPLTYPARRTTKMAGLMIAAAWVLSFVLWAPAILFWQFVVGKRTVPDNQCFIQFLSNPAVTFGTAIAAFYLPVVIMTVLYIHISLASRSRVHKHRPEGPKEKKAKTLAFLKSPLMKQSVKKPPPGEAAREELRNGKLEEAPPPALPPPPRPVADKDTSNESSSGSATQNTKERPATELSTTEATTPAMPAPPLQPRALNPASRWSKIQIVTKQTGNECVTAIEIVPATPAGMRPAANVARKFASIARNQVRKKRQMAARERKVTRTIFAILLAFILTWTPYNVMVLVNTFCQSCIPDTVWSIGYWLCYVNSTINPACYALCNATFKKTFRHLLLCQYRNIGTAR
Text: as §1

M2 muscarinic receptor [4] = target: T2, M2 muscarinic receptor; assay: Effect of rapacuronium on 1 nM [3H]NMS binding; parameters: host or cells: CHO cells, stably transfected; membrane preparation
Text: (§2) Cooperativity factor greater than 1 denotes negative cooperativity and less than 1 positive cooperativity. Due to its log-normal error distribution factors of cooperativity are expressed as negative logarithms (pα) through the manuscript so negative values denotes negative cooperativity and positive value denotes positive cooperativity.

M1 muscarinic receptor = target: T4, M1 muscarinic receptor (Homo sapiens, UniProt P11229); assay: Effect of rapacuronium on high-affinity 20 nM [3H]ACh binding
T4 construct: host or cells: CHO cells, stably transfected; membrane preparation
T4 sequence (P11229 1-460): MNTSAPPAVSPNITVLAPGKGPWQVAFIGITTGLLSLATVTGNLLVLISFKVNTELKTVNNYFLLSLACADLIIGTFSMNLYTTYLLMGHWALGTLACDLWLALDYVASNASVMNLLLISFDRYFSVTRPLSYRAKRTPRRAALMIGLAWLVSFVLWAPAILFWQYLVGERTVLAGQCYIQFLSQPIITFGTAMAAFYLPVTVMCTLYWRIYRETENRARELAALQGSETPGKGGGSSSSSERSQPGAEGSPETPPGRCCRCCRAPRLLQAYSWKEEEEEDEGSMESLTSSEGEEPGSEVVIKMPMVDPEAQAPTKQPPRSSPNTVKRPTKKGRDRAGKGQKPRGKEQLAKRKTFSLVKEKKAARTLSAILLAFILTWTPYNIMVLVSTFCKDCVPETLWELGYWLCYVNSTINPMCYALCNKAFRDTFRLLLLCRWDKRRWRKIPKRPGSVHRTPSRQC
Text: as §2

M3 muscarinic receptor = target: T5, M3 muscarinic receptor (Homo sapiens, UniProt P20309); assay: as above
T5 construct: host or cells: CHO cells, stably transfected; membranes
T5 sequence (P20309 whole entry): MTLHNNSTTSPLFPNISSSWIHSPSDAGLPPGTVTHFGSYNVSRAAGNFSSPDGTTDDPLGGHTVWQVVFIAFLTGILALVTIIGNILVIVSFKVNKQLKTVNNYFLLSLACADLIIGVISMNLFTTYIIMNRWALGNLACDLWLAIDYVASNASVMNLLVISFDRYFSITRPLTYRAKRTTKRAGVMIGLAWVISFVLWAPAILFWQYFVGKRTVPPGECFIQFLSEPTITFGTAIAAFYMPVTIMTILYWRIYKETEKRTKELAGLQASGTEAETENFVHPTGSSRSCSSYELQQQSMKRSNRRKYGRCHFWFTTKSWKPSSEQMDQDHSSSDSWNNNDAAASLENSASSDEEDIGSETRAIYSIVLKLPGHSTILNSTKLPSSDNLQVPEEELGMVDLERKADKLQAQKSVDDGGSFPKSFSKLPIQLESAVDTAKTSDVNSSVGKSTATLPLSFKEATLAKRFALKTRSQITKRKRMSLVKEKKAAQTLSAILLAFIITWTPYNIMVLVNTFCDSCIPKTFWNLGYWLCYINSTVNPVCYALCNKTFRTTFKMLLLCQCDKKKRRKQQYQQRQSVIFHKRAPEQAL
Text: as §2

[5] = system: nontransfected CHO-K1 cells; assay: [35S]GTPγS binding to membranes from nontransfected cells; assay type: biochemical, Chinese hamster
Experimental: Figure 6 Effects of rapacuronium on ACh-induced [^35S]GTPγS binding to membranes. Membranes from CHO cells expressing individual subtypes of muscarinic receptors or nontransfected CHO-K1 cells were preincubated for 60 min with buffer (closed symbols) or with rapacuronium (open symbols). […] Data are expressed as fold increase of basal [^35S]GTPγS binding and are presented as means ± SE from 3 independent experiments performed in quadruplicates. Curves are fits of Eq. 5 to data.

[6] = read-out: pKA of rapacuronium (converted)

Compound: C=CC[N+]1([C@H]2C[C@H]3[C@@H]4CC[C@H]5C[C@H](OC(C)=O)[C@@H](N6CCCCC6)C[C@]5(C)[C@H]4CC[C@]3(C)[C@H]2OC(=O)CC)CCCCC1 [rapacuronium]
- BMAX of [^3H]NMS (M5 muscarinic receptor [1]; + 10 μM rapacuronium): 1.53 ± 0.15 fmol/μg of protein
- BMAX of [^3H]NMS (M5 muscarinic receptor [1]; + 100 μM rapacuronium): 1.33 ± 0.13 fmol/μg of protein
- EMAX of ACh on [^35S]GTPγS binding (M2 muscarinic receptor [2]; + 0.1 μM rapacuronium): 3.10 ± 0.15
- EMAX of ACh on [^35S]GTPγS binding (M2 muscarinic receptor [2]; + 1 μM rapacuronium): 2.93 ± 0.13
- EMAX of ACh on [^35S]GTPγS binding (M2 muscarinic receptor [2]; + 10 μM rapacuronium): 2.46 ± 0.18
- EMAX of rapacuronium on [^35S]GTPγS binding (M2 muscarinic receptor [2]; rapacuronium alone, normalized to absence of rapacuronium): 0.84 ± 0.06
- EC50 (M2 muscarinic receptor [2]; rapacuronium alone, read-out: pEC50 of rapacuronium on [^35S]GTPγS binding (converted)): 28.2 µM
- BMAX of [^3H]ACh (M5 muscarinic receptor [3]; + 10 μM rapacuronium): 0.33 ± 0.03 fmol/μg of protein
- BMAX of [^3H]ACh (M5 muscarinic receptor [3]; + 100 μM rapacuronium): 0.34 ± 0.06 fmol/μg of protein
- BMAX of [^3H]ACh (M4 muscarinic receptor; + 10 μM rapacuronium): 0.54 ± 0.05 fmol/μg of protein
- BMAX of [^3H]ACh (M4 muscarinic receptor; + 100 μM rapacuronium): 0.47 ± 0.04 fmol/μg of protein
- decrease in affinity of [^3H]NMS (cooperativity) (M2 muscarinic receptor [4]; M2): 6.8 fold
- pα, cooperativity with [^3H]NMS (M2 muscarinic receptor [4]; M2, negative value = negative cooperativity): -0.83 ± 0.07
- Kd (M2 muscarinic receptor [4]; [6]): 2.57 µM
- pα, cooperativity with [^3H]ACh high affinity binding (M1 muscarinic receptor; M1, negative value = negative cooperativity): -1.30 ± 0.07
- Kd (M1 muscarinic receptor; [6]): 4.27 µM
- pα, cooperativity with [^3H]ACh high affinity binding (M3 muscarinic receptor; M3, negative value = negative cooperativity): -1.26 ± 0.05
- Kd (M3 muscarinic receptor; [6]): 15.8 µM
- effect on [^35S]GTPγS binding [5]: did not decrease
